Measurements published in patent US11739074B2, “Ras inhibitors” (Revolution Medicines, Inc., priority 2019, dated 2023).
Like-named read-outs stand apart in the source and are kept apart here.

Experiments:
NRAS G12C = biological target: T1, NRAS G12C (Homo sapiens, UniProt P01111+P62937, G12C); test: Ras-Raf disruption/FRET/MOA assay, NRAS G12C; type: biochemical
T1 construct: His6
Method in brief: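 Disruption of Ras:RAF binding was read as a drop in TR-FRET ratio versus DMSO controls. The buffer was 25 mM HEPES pH 7.3, 0.002% Tween20, 0.1% BSA, 100 mM NaCl and 5 mM MgCl2. Compounds were tested as a 10-point 3-fold dilution series from 30 μM. Detection used 10 nM anti-His Eu-W1024 and 50 nM anti-GST allophycocyanin.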

NCI-H358 (K-Ras G12C) = test: CellTiter-Glo cell viability assay, H358; type: cell-based; conditions: Homo sapiens, NCI-H358, 120 h
Method in brief: (§1)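 Compounds dispensed directly onto seeded AsPC-1 (K-Ras G12D) or NCI-H358 (K-Ras G12C) cells; CellTiter-Glo luminescence read on day 5 after ~30 min equilibration to room temperature. Signal normalized to DMSO average (%) and fit by four-parameter logistic.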

KRAS G13C = KRAS G13C (Homo sapiens, UniProt P01116+P62937, G13C); test: Ras-Raf disruption/FRET/MOA assay, KRAS G13C; type: biochemical
Method in brief: (§2)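 His6-KRAS-GMPPNP (12.5 nM) was combined with tagless Cyclophilin A (25 μM) and GST-BRAF^RBD (50 nM) in pH 7.3 HEPES buffer with NaCl, MgCl2, Tween20 and BSA. Compound was tested as a 10-point 3-fold series from 30 μM final, 3 h at 25° C. Disruption was read as a drop in TR-FRET ratio versus DMSO.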

KRAS G12C = KRAS G12C (Homo sapiens, UniProt P01116+P62937, G12C); test: Ras-Raf disruption/FRET/MOA assay, KRAS G12C; type: biochemical
Method in brief: as §2

KRAS G13D = KRAS G13D (Homo sapiens, UniProt P01116+P62937, G13D); test: Ras-Raf disruption/FRET/MOA assay, KRAS G13D; type: biochemical
Method in brief: as §2

AsPC-1 (K-Ras G12D) [1] = test: Potency assay: pERK in AsPC-1 cells; type: cell-based; conditions: Homo sapiens
KRAS G12D = KRAS G12D (Homo sapiens, UniProt P01116+P62937, G12D); test: Ras-Raf disruption/FRET/MOA assay, KRAS G12D; type: biochemical
Method in brief: as §2

KRAS G12V = KRAS G12V (Homo sapiens, UniProt P01116+P62937, G12V); test: Ras-Raf disruption/FRET/MOA assay, KRAS G12V; type: biochemical
Method in brief: as §2

KRAS WT = KRAS WT (Homo sapiens, UniProt P01116+P62937); test: Ras-Raf disruption/FRET/MOA assay, KRAS WT; type: biochemical
Method in brief: as §2

AsPC-1 (K-Ras G12D) [2] = test: CellTiter-Glo cell viability assay, AsPC-1; type: cell-based; conditions: Homo sapiens, ASPC1, 120 h
Method in brief: as §1

KRAS G12S = KRAS G12S (Homo sapiens, UniProt P01116+P62937, G12S); test: Ras-Raf disruption/FRET/MOA assay, KRAS G12S; type: biochemical
Method in brief: as §2

[3] = NRAS G12C FRET data IC50, NRAS G12C
[4] = read-out: H358 Cell Viability IC50, NCI-H358, K-Ras G12C, 5-day treatment
[5] = ASPC1, read-out: pERK EC50 (AsPC-1 KRAS G12D)
[6] = read-out: AsPC-1 Cell Viability IC50, AsPC-1, K-Ras G12D, 5-day treatment
[7] = NRAS G12C, read-out: NRAS G12C FRET data IC50
[8] = read-out: H358 Cell Viability IC50
[9] = disruption of BRAF RBD binding, with Cyclophilin A, read-out: KRAS G13C FRET IC50
[10] = disruption of BRAF RBD binding, with Cyclophilin A, read-out: KRAS G12C FRET IC50
[11] = disruption of BRAF RBD binding, with Cyclophilin A, read-out: KRAS G13D FRET IC50
[12] = disruption of BRAF RBD binding, with Cyclophilin A, read-out: KRAS G12D FRET IC50
[13] = disruption of BRAF RBD binding, with Cyclophilin A, read-out: KRAS G12V FRET IC50
[14] = disruption of BRAF RBD binding, with Cyclophilin A, read-out: KRAS WT FRET IC50
[15] = read-out: AsPC-1 Cell Viability IC50
[16] = disruption of BRAF RBD binding, with Cyclophilin A, read-out: KRAS G12S FRET IC50

Chain of KRAS G13C (P01116 1-169 isoform P01116-2 G13C limits assumed): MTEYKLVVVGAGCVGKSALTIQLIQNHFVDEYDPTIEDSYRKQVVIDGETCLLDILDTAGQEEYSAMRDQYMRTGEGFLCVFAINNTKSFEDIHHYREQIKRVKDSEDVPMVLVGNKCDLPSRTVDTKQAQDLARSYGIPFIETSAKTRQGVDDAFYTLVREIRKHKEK
Chain of KRAS G13C (P62937 whole entry): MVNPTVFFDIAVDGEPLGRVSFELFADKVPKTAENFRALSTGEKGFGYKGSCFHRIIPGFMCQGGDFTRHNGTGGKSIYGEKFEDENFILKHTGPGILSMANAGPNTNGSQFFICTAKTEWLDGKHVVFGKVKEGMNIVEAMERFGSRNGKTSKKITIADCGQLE
Chain of KRAS G12D (P01116 1-169 isoform P01116-2 G12D limits assumed): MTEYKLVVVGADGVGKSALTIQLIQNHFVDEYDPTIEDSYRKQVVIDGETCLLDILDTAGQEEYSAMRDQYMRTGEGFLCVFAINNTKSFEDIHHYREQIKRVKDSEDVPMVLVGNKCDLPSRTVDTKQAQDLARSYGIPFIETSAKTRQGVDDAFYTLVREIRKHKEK
Chain of KRAS G12D (P62937 whole entry): as the sequence (P62937 whole entry) above
Chain of KRAS WT (P01116 1-169 isoform P01116-2 limits assumed): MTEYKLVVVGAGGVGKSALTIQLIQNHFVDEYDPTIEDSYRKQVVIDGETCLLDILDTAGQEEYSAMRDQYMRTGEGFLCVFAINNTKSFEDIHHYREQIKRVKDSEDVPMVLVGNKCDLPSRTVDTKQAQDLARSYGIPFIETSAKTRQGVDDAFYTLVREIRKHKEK
Chain of KRAS WT (P62937 whole entry): as the sequence (P62937 whole entry) above
Chain of KRAS G13D (P01116 1-169 isoform P01116-2 G13D limits assumed): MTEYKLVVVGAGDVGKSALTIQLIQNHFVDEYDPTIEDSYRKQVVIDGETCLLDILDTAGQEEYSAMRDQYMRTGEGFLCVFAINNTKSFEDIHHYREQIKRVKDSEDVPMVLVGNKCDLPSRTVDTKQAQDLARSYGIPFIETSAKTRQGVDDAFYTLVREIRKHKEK
Chain of KRAS G13D (P62937 whole entry): as the sequence (P62937 whole entry) above
Chain of KRAS G12S (P01116 1-169 isoform P01116-2 G12S limits assumed): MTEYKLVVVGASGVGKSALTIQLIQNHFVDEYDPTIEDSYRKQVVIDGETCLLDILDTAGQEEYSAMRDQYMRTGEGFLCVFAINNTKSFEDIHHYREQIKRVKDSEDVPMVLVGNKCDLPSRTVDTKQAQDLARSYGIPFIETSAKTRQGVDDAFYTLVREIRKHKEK
Chain of KRAS G12S (P62937 whole entry): as the sequence (P62937 whole entry) above
Chain of KRAS G12V (P01116 1-169 isoform P01116-2 G12V limits assumed): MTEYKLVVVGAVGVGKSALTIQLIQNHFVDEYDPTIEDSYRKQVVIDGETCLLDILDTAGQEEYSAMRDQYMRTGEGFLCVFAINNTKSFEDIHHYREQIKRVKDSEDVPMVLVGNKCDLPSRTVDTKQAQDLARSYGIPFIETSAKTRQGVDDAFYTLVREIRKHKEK
Chain of KRAS G12V (P62937 whole entry): as the sequence (P62937 whole entry) above
Chain of KRAS G12C (P01116 1-169 isoform P01116-2 G12C limits assumed): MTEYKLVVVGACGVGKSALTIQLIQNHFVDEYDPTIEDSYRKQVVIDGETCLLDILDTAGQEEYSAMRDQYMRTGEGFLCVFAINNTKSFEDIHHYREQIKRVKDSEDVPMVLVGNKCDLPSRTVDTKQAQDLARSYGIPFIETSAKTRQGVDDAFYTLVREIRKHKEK
Chain of KRAS G12C (P62937 whole entry): as the sequence (P62937 whole entry) above
T1 sequence (P01111 whole entry G12C): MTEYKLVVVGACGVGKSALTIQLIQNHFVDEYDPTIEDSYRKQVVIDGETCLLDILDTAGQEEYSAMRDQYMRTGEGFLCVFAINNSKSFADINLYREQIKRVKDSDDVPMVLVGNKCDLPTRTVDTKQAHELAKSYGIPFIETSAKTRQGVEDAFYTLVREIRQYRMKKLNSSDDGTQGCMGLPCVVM
T1 sequence (P62937 whole entry): as the sequence (P62937 whole entry) above

Row | Compound | IC50 (NRAS G12C; [3]) | IC50 (NCI-H358 (K-Ras G12C); [4]) | IC50 (KRAS G13C) | IC50 (KRAS G12C) | IC50 (KRAS G13D) | EC50 (AsPC-1 (K-Ras G12D) [1]; [5]) | IC50 (KRAS G12D) | IC50 (KRAS G12V) | IC50 (KRAS WT) | IC50 (AsPC-1 (K-Ras G12D) [2]; [6]) | IC50 (KRAS G12S) | IC50 (NRAS G12C; [7]) | IC50 (NCI-H358 (K-Ras G12C); [8]) | IC50 (KRAS G13C; [9]) | IC50 (KRAS G12C; [10]) | IC50 (KRAS G13D; [11]) | IC50 (KRAS G12D; [12]) | IC50 (KRAS G12V; [13]) | IC50 (KRAS WT; [14]) | IC50 (KRAS G12S; [16]) | also measured
1 | CCn1c(-c2cnccc2COC)c2c3cc(ccc31)-c1cc(O)cc(c1)C[C@H](NC(=O)[C@H](C(C)C)N(C)C(=O)CN(C)C(=O)[C@@H]1CN1Cc1ccccc1)C(=O)N1CCC[C@H](N1)C(=O)OCC(C)(C)C2 (some centres unmarked) [Compound 10] | 10 to 100 nM | 10 to 100 nM | 100 to 1000 nM | 10 to 100 nM | 1000 to 10000 nM | < 5 µM | 1000 to 10000 nM | 100 to 1000 nM | 100 to 1000 nM | 1000 to 10000 nM | 10 to 100 nM | – | – | – | – | – | – | – | – | – | –
2 | CCn1c(-c2cnccc2COC)c2c3cc(ccc31)-c1cc(O)cc(c1)C[C@H](NC(=O)[C@H](C(C)C)N(C)C(=O)CN(C)C(=O)[C@@H]1CN1)C(=O)N1CCC[C@H](N1)C(=O)OCC(C)(C)C2 [Compound 8] | 10 to 100 nM | 10 to 100 nM | 10 to 100 nM | 10 to 100 nM | 100 to 1000 nM | < 5 µM | 100 to 1000 nM | 100 to 1000 nM | 100 to 1000 nM | 1000 to 10000 nM | 10 to 100 nM | – | – | – | – | – | – | – | – | – | –
3 | CCn1c(-c2cccnc2[C@H](C)OC)c2c3cc(ccc31)-c1cc(O)cc(c1)C[C@H](NC(=O)[C@H](C(C)C)N(C)C(=O)CN(C)C(=O)[C@@H]1CN1)C(=O)N1CCC[C@H](N1)C(=O)OCC(C)(C)C2 [Compound 150] | < 10 nM | < 10 nM | 10 to 100 nM | < 10 nM | 10 to 100 nM | < 5 µM | 10 to 100 nM | 10 to 100 nM | 10 to 100 nM | 100 to 1000 nM | 10 to 100 nM | – | – | – | – | – | – | – | – | – | –
4 | CCn1c(-c2cnccc2COC)c2c3cc(ccc31)-c1cc(O)cc(c1)C[C@H](NC(=O)[C@H](C(C)C)N(C)C(=O)CN(C)C(=O)[C@H]1CN1Cc1ccccc1)C(=O)N1CCC[C@H](N1)C(=O)OCC(C)(C)C2 (some centres unmarked) [Compound 9] | 10 to 100 nM | 10 to 100 nM | 100 to 1000 nM | 10 to 100 nM | 100 to 1000 nM | < 5 µM | 1000 to 10000 nM | 100 to 1000 nM | 100 to 1000 nM | 1000 to 10000 nM | 100 to 1000 nM | – | – | – | – | – | – | – | – | – | –
5 | CCn1c(-c2cnccc2COC)c2c3cc(ccc31)-c1cc(O)cc(c1)C[C@H](NC(=O)[C@H](C(C)C)N(C)C(=O)CN(C)C(=O)C1CN1C(C)=O)C(=O)N1CCC[C@H](N1)C(=O)OCC(C)(C)C2 (some centres unmarked) [Compound 14] | – | – | – | – | – | < 5 µM | – | – | – | – | – | 10 to 100 nM | 100 to 1000 nM | 10 to 100 nM | 10 to 100 nM | 100 to 1000 nM | 100 to 1000 nM | 100 to 1000 nM | 100 to 1000 nM | 100 to 1000 nM | IC50 (AsPC-1 (K-Ras G12D) [2]; [15]): 1000 to 10000 nM
6 | CCn1c(-c2cccnc2[C@H](C)OC)c2c3cc(ccc31)-c1cc(O)cc(c1)C[C@H](NC(=O)[C@H](C1CCCC1)N(C)C(=O)[C@H]1CCN(C(=O)[C@H]3CN3)C1)C(=O)N1CCC[C@H](N1)C(=O)OCC(C)(C)C2 [Compound 58] | – | – | – | – | – | – | – | – | – | – | – | < 10 nM | – | 10 to 100 nM | < 10 nM | 10 to 100 nM | 100 to 1000 nM | 10 to 100 nM | 10 to 100 nM | 10 to 100 nM | IC50 (NCI-H358 (K-Ras G12C); NCI-H358, K-Ras G12C, 5-day treatment, read-out: H358 Cell Viability IC50): < 10 nM; EC50 (AsPC-1 (K-Ras G12D) [1]; ASPC1, AsPC-1 cells, K-Ras G12D, read-out: pERK EC50 (AsPC-1 KRAS G12D)): < 5 µM; IC50 (AsPC-1 (K-Ras G12D) [2]; AsPC-1, K-Ras G12D, 5-day treatment, read-out: AsPC-1 Cell Viability IC50): 100 to 1000 nM
7 | CCn1c(-c2cnccc2COC)c2c3cc(ccc31)-c1cc(O)cc(c1)C[C@H](NC(=O)[C@H](C(C)C)N(C)C(=O)CN(C)C(=O)[C@@H]1[C@H](C(=O)OC)N1[S@@+]([O-])C(C)(C)C)C(=O)N1CCC[C@H](N1)C(=O)OCC(C)(C)C2 (some centres unmarked) [Compound 50] | – | – | – | – | – | < 5 µM | – | – | – | – | – | 10 to 100 nM | 100 to 1000 nM | 10 to 100 nM | 10 to 100 nM | 100 to 1000 nM | 100 to 1000 nM | 10 to 100 nM | 100 to 1000 nM | 10 to 100 nM | IC50 (AsPC-1 (K-Ras G12D) [2]; [15]): > 10000 nM
8 | CCn1c(-c2cnccc2COC)c2c3cc(ccc31)-c1cc(O)cc(c1)C[C@H](NC(=O)[C@H](C(C)C)N(C)C(=O)CN(C)C(=O)[C@H]1CN1)C(=O)N1CCC[C@H](N1)C(=O)OCC(C)(C)C2 [Example 7, (2R)—N-(2-(((2S)-1-(((6^3S,4S)-1^1-ethyl-2^5-hydroxy-1^2-(4-(methoxymethyl)pyridin-3-yl)-10,10-dimethyl-5,7-dioxo-6^1,6^2,6^3,6^4,6^5,6^6-hexahydro-1^1H-8-oxa-1(5,3)-indola-6(1,3)-pyridazina-2(1,3)-benzenacycloundecaphane-4-yl)amino)-3-methyl-1-oxobutan-2-yl)(methyl)amino)-2-oxoethyl)-N-methylaziridine-2-carboxamide] | < 10 nM | 10 to 100 nM | 10 to 100 nM | < 10 nM | 100 to 1000 nM | < 5 µM | 100 to 1000 nM | 100 to 1000 nM | 100 to 1000 nM | 100 to 1000 nM | 10 to 100 nM | – | – | – | – | – | – | – | – | – | –
9 | CCn1c(-c2cnccc2COC)c2c3cc(ccc31)-c1cc(O)cc(c1)C[C@H](NC(=O)[C@H](C(C)C)N(C)C(=O)CN(C)C(=O)C1CN1S(C)(=O)=O)C(=O)N1CCC[C@H](N1)C(=O)OCC(C)(C)C2 (some centres unmarked) [Compound 13] | – | – | – | – | – | < 5 µM | – | – | – | – | – | 10 to 100 nM | 10 to 100 nM | 10 to 100 nM | 10 to 100 nM | 100 to 1000 nM | 100 to 1000 nM | 10 to 100 nM | 10 to 100 nM | 10 to 100 nM | IC50 (AsPC-1 (K-Ras G12D) [2]; [15]): 1000 to 10000 nM
10 | CCn1c(-c2cnccc2COC)c2c3cc(ccc31)-c1cc(O)cc(c1)C[C@H](NC(=O)[C@H](C(C)C)N(C)C(=O)CN(C)C(=O)[C@H]1[C@@H](C3CC3)N1[S@+]([O-])C(C)(C)C)C(=O)N1CCC[C@H](N1)C(=O)OCC(C)(C)C2 (some centres unmarked) [Compound 52] | – | – | – | – | – | < 5 µM | – | – | – | – | – | 10 to 100 nM | 100 to 1000 nM | 100 to 1000 nM | 10 to 100 nM | 100 to 1000 nM | 100 to 1000 nM | 100 to 1000 nM | 10 to 100 nM | 10 to 100 nM | IC50 (AsPC-1 (K-Ras G12D) [2]; [15]): 1000 to 10000 nM
